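In this assay, cells in 96-well plates receive the compound at five concentrations for 48 hours. Endpoints are linearly interpolated between the surrounding concentrations. Abbreviation: GI50, concentration required for 50% inhibition of growth. TGI marks complete inhibition of growth.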
Legend:
Test in all cases: growth of human tumour cells (NCI), 48 h
SW-620 colon = test system: SW-620 colon
ACHN renal = test system: ACHN renal
RPMI-8226 leukemia = test system: RPMI-8226 leukemia
NCI-H460 lung = test system: NCI-H460 lung
MOLT-4 leukemia = test system: MOLT-4 leukemia
SK-MEL-2 melanoma = test system: SK-MEL-2 melanoma
RXF-631 renal = test system: RXF-631 renal
CAKI-1 renal = test system: CAKI-1 renal
COLO 205 colon = test system: COLO 205 colon
OVCAR-5 ovarian = test system: OVCAR-5 ovarian
HCC-2998 colon = test system: HCC-2998 colon
SF-295 CNS = test system: SF-295 CNS
KM12 colon = test system: KM12 colon
SN12C renal = test system: SN12C renal
CCRF-CEM leukemia = test system: CCRF-CEM leukemia
NCI-H23 lung = test system: NCI-H23 lung
A549 NSCLC = test system: A549 NSCLC
A498 renal = test system: A498 renal
SK-OV-3 ovarian = test system: SK-OV-3 ovarian
SK-MEL-5 melanoma = test system: SK-MEL-5 melanoma
TK-10 renal = test system: TK-10 renal
M19-MEL melanoma = test system: M19-MEL melanoma
RXF 393 renal = test system: RXF 393 renal
UACC-257 melanoma = test system: UACC-257 melanoma
KM20L2 colon = test system: KM20L2 colon
NCI-H522 lung = test system: NCI-H522 lung
LXFL 529 NSCLC = test system: LXFL 529 NSCLC
XF 498 CNS = test system: XF 498 CNS
OVCAR-4 ovarian = test system: OVCAR-4 ovarian
SK-MEL-28 melanoma = test system: SK-MEL-28 melanoma
HCT-15 colon = test system: HCT-15 colon
IGROV1 ovarian = test system: IGROV1 ovarian
SNB-78 CNS = test system: SNB-78 CNS
EKVX NSCLC = test system: EKVX NSCLC
DLD-1 colon = test system: DLD-1 colon
SNB-75 CNS = test system: SNB-75 CNS
K-562 leukemia = test system: K-562 leukemia
UACC-62 melanoma = test system: UACC-62 melanoma
U251 CNS = test system: U251 CNS
SF-268 CNS = test system: SF-268 CNS
DMS 114 small cell lung = test system: DMS 114 small cell lung
786-0 renal = test system: 786-0 renal
DMS 273 small cell lung = test system: DMS 273 small cell lung
HOP-92 NSCLC = test system: HOP-92 NSCLC
HL-60(TB) leukemia = test system: HL-60(TB) leukemia
M14 melanoma = test system: M14 melanoma
OVCAR-3 ovarian = test system: OVCAR-3 ovarian
HT29 colon = test system: HT29 colon
LOX IMVI melanoma = test system: LOX IMVI melanoma
OVCAR-8 ovarian = test system: OVCAR-8 ovarian
HOP-62 NSCLC = test system: HOP-62 NSCLC
MALME-3M melanoma = test system: MALME-3M melanoma

CC[O-].CC[O-].O=C([CH-]C(=O)c1ccccc1)CCCCCCCCC(=O)[CH-]C(=O)c1ccccc1.[Ti+4]
GI50 (SW-620 colon): > 100 µM
TGI (SW-620 colon): > 100 µM
GI50 (ACHN renal): > 100 µM
TGI (ACHN renal): > 100 µM
GI50 (RPMI-8226 leukemia): > 100 µM
TGI (RPMI-8226 leukemia): > 100 µM
GI50 (NCI-H460 lung): > 100 µM
TGI (NCI-H460 lung): > 100 µM
GI50 (MOLT-4 leukemia): 53.9 µM
TGI (MOLT-4 leukemia): > 100 µM
GI50 (SK-MEL-2 melanoma): > 100 µM
TGI (SK-MEL-2 melanoma): > 100 µM
GI50 (RXF-631 renal): > 100 µM
TGI (RXF-631 renal): > 100 µM
GI50 (CAKI-1 renal): > 100 µM
TGI (CAKI-1 renal): > 100 µM
GI50 (COLO 205 colon): > 100 µM
TGI (COLO 205 colon): > 100 µM
GI50 (OVCAR-5 ovarian): > 100 µM
TGI (OVCAR-5 ovarian): > 100 µM
GI50 (HCC-2998 colon): > 100 µM
TGI (HCC-2998 colon): > 100 µM
GI50 (SF-295 CNS): 1.52 µM
TGI (SF-295 CNS): > 100 µM
GI50 (KM12 colon): 0.032 µM
TGI (KM12 colon): 3.25 µM
GI50 (SN12C renal): > 100 µM
TGI (SN12C renal): > 100 µM
GI50 (CCRF-CEM leukemia): 41.8 µM
TGI (CCRF-CEM leukemia): > 100 µM
GI50 (NCI-H23 lung): 92 µM
TGI (NCI-H23 lung): > 100 µM
GI50 (A549 NSCLC): > 100 µM
TGI (A549 NSCLC): > 100 µM
GI50 (A498 renal): > 100 µM
TGI (A498 renal): > 100 µM
GI50 (SK-OV-3 ovarian): > 100 µM
TGI (SK-OV-3 ovarian): > 100 µM
GI50 (SK-MEL-5 melanoma): > 100 µM
TGI (SK-MEL-5 melanoma): > 100 µM
GI50 (TK-10 renal): > 100 µM
TGI (TK-10 renal): > 100 µM
GI50 (M19-MEL melanoma): > 100 µM
TGI (M19-MEL melanoma): > 100 µM
GI50 (RXF 393 renal): 45 µM
TGI (RXF 393 renal): > 100 µM
GI50 (UACC-257 melanoma): > 100 µM
TGI (UACC-257 melanoma): > 100 µM
GI50 (KM20L2 colon): > 100 µM
TGI (KM20L2 colon): > 100 µM
GI50 (NCI-H522 lung): > 100 µM
TGI (NCI-H522 lung): > 100 µM
GI50 (LXFL 529 NSCLC): > 100 µM
TGI (LXFL 529 NSCLC): > 100 µM
GI50 (XF 498 CNS): > 100 µM
TGI (XF 498 CNS): > 100 µM
GI50 (OVCAR-4 ovarian): 78.8 µM
TGI (OVCAR-4 ovarian): > 100 µM
GI50 (SK-MEL-28 melanoma): > 100 µM
TGI (SK-MEL-28 melanoma): > 100 µM
GI50 (HCT-15 colon): > 100 µM
TGI (HCT-15 colon): > 100 µM
GI50 (IGROV1 ovarian): > 100 µM
TGI (IGROV1 ovarian): > 100 µM
GI50 (SNB-78 CNS): > 100 µM
TGI (SNB-78 CNS): > 100 µM
GI50 (EKVX NSCLC): > 100 µM
TGI (EKVX NSCLC): > 100 µM
GI50 (DLD-1 colon): > 100 µM
TGI (DLD-1 colon): > 100 µM
GI50 (SNB-75 CNS): > 100 µM
TGI (SNB-75 CNS): > 100 µM
GI50 (K-562 leukemia): > 100 µM
TGI (K-562 leukemia): > 100 µM
GI50 (UACC-62 melanoma): > 100 µM
TGI (UACC-62 melanoma): > 100 µM
GI50 (U251 CNS): > 100 µM
TGI (U251 CNS): > 100 µM
GI50 (SF-268 CNS): > 100 µM
TGI (SF-268 CNS): > 100 µM
GI50 (DMS 114 small cell lung): 80.6 µM
TGI (DMS 114 small cell lung): > 100 µM
GI50 (786-0 renal): > 100 µM
TGI (786-0 renal): > 100 µM
GI50 (DMS 273 small cell lung): > 100 µM
TGI (DMS 273 small cell lung): > 100 µM
GI50 (HOP-92 NSCLC): 67.5 µM
TGI (HOP-92 NSCLC): > 100 µM
GI50 (HL-60(TB) leukemia): > 100 µM
TGI (HL-60(TB) leukemia): > 100 µM
GI50 (M14 melanoma): > 100 µM
TGI (M14 melanoma): > 100 µM
GI50 (OVCAR-3 ovarian): 0.756 µM
TGI (OVCAR-3 ovarian): > 100 µM
GI50 (HT29 colon): > 100 µM
TGI (HT29 colon): > 100 µM
GI50 (LOX IMVI melanoma): > 100 µM
TGI (LOX IMVI melanoma): > 100 µM
GI50 (OVCAR-8 ovarian): 52.1 µM
TGI (OVCAR-8 ovarian): > 100 µM
GI50 (HOP-62 NSCLC): > 100 µM
TGI (HOP-62 NSCLC): > 100 µM
GI50 (MALME-3M melanoma): 73.6 µM
TGI (MALME-3M melanoma): > 100 µM

— PubChem BioAssay (NCI)
